Experimental data as given in the NIST ThermoML archive (doi:10.1016/j.jct.2004.12.008).

Experiment: xn = mol fraction of the nth substance listed
Conditions: 101 kPa, Liquid

O=[N+]([O-])c1ccccc1 [nitrobenzene] + Cc1ccc(C)cc1
Conditions	mass density [kg/m3]
293.15 K, x2 = 0	1202.95
293.15 K, x2 = 0.0587	1179.74
293.15 K, x2 = 0.1232	1154.82
293.15 K, x2 = 0.1933	1128.38
293.15 K, x2 = 0.2516	1106.86
293.15 K, x2 = 0.3298	1078.63
293.15 K, x2 = 0.3891	1057.67
293.15 K, x2 = 0.4423	1039.19
293.15 K, x2 = 0.4983	1020.04
293.15 K, x2 = 0.5512	1002.23
293.15 K, x2 = 0.6242	978.08
293.15 K, x2 = 0.6943	955.34
293.15 K, x2 = 0.7523	936.85
293.15 K, x2 = 0.8211	915.28
293.15 K, x2 = 0.8723	899.49
293.15 K, x2 = 0.9421	878.29
303.15 K, x2 = 0	1193.56
303.15 K, x2 = 0.0623	1168.84
303.15 K, x2 = 0.1123	1149.43
303.15 K, x2 = 0.1823	1122.85
303.15 K, x2 = 0.2429	1100.38
303.15 K, x2 = 0.3189	1072.84
303.15 K, x2 = 0.3894	1047.9
303.15 K, x2 = 0.4376	1031.16
303.15 K, x2 = 0.4889	1013.63
303.15 K, x2 = 0.5321	999.06
303.15 K, x2 = 0.6078	973.98
303.15 K, x2 = 0.6731	952.79
303.15 K, x2 = 0.7561	926.4
303.15 K, x2 = 0.8247	905.05
303.15 K, x2 = 0.8871	885.97
303.15 K, x2 = 0.9316	872.57
313.15 K, x2 = 0	1183.36
313.15 K, x2 = 0.0598	1159.6
313.15 K, x2 = 0.1342	1130.81
313.15 K, x2 = 0.1732	1116.05
313.15 K, x2 = 0.2311	1094.53
313.15 K, x2 = 0.3239	1060.94
313.15 K, x2 = 0.3971	1035.18
313.15 K, x2 = 0.4576	1014.35
313.15 K, x2 = 0.514	995.29
313.15 K, x2 = 0.5672	977.61
313.15 K, x2 = 0.6234	959.24
313.15 K, x2 = 0.6831	940.06
313.15 K, x2 = 0.7421	921.43
313.15 K, x2 = 0.7901	906.5
313.15 K, x2 = 0.8611	884.8
313.15 K, x2 = 0.9287	864.54
323.15 K, x2 = 0	1172.38
323.15 K, x2 = 0.048	1153.29
323.15 K, x2 = 0.1243	1123.72
323.15 K, x2 = 0.1892	1099.28
323.15 K, x2 = 0.2572	1074.3
323.15 K, x2 = 0.3249	1050.03
323.15 K, x2 = 0.4023	1022.99
323.15 K, x2 = 0.4683	1000.47
323.15 K, x2 = 0.5138	985.24
323.15 K, x2 = 0.5871	961.14
323.15 K, x2 = 0.6422	943.39
323.15 K, x2 = 0.7139	920.72
323.15 K, x2 = 0.7811	899.92
323.15 K, x2 = 0.8428	881.17
323.15 K, x2 = 0.8781	870.6
323.15 K, x2 = 0.9424	851.62
333.15 K, x2 = 0	1160.59
333.15 K, x2 = 0.0668	1134.27
333.15 K, x2 = 0.1235	1112.51
333.15 K, x2 = 0.1983	1084.57
333.15 K, x2 = 0.2547	1064.03
333.15 K, x2 = 0.3133	1043.14
333.15 K, x2 = 0.3942	1015.02
333.15 K, x2 = 0.4789	986.4
333.15 K, x2 = 0.5287	969.96
333.15 K, x2 = 0.5902	950.01
333.15 K, x2 = 0.6517	930.44
333.15 K, x2 = 0.7244	907.78
333.15 K, x2 = 0.7923	887.08
333.15 K, x2 = 0.8321	875.13
333.15 K, x2 = 0.8832	860
333.15 K, x2 = 0.9329	845.51
343.15 K, x2 = 0	1147.99
343.15 K, x2 = 0.0623	1123.65
343.15 K, x2 = 0.1324	1097.02
343.15 K, x2 = 0.1824	1078.5
343.15 K, x2 = 0.2561	1051.86
343.15 K, x2 = 0.3249	1027.65
343.15 K, x2 = 0.3867	1006.43
343.15 K, x2 = 0.4562	983.11
343.15 K, x2 = 0.5139	964.17
343.15 K, x2 = 0.5719	945.49
343.15 K, x2 = 0.6317	926.6
343.15 K, x2 = 0.691	908.21
343.15 K, x2 = 0.7613	886.86
343.15 K, x2 = 0.8312	866.07
343.15 K, x2 = 0.8931	848.03
343.15 K, x2 = 0.9537	830.69
353.15 K, x2 = 0	1134.61
353.15 K, x2 = 0.0479	1116.05
353.15 K, x2 = 0.1123	1091.72
353.15 K, x2 = 0.1742	1068.95
353.15 K, x2 = 0.2498	1041.91
353.15 K, x2 = 0.3013	1023.94
353.15 K, x2 = 0.3781	997.79
353.15 K, x2 = 0.4538	972.7
353.15 K, x2 = 0.5247	949.8
353.15 K, x2 = 0.6149	921.44
353.15 K, x2 = 0.662	906.96
353.15 K, x2 = 0.7137	891.32
353.15 K, x2 = 0.7832	870.68
353.15 K, x2 = 0.8312	856.69
353.15 K, x2 = 0.8813	842.3
353.15 K, x2 = 0.9422	825.1
